In paper PMC11655904, “[^89Zr]Zr-DFO-TOC: a novel radiopharmaceutical for PET imaging of somatostatin receptor positive neuroendocrine tumors” (EJNMMI Radiopharmacy and Chemistry, 2024):
Several values for one entry are separate records, joined by “and”; a condition that tells them apart may be missing. Identical values can stand only once. Entries after “also recorded” stand apart in the source; their conditions may differ.

What was measured:
SSTR2 = system: SSTR2; parameters: method as in Buscail et al. [1994]; details: ref Buscail et al. [1994]; cited from earlier work
Text: (§1) Significant progress has been made in recent years towards understanding the underlying biology and molecular pathways involved with NETs, particularly the role of somatostatin receptors (SSTRs) and their downstream pathways. SSTRs (SSTR1, 2 A/2B, 3, 4, and 5) belong to a family of G protein-coupled receptors with seven transmembrane-spanning proteins that bind the cyclic peptide somatostatin (SST) (Theodoropoulou and Stalla [2013]). SST regulates cell growth and inhibits hormone secretion in the endocrine and exocrine systems (Brereton et al. [2015]; Ampofo et al. [2020]). Prior research has ...

SSTR2, AR42J = details: ref Vaidyanathan et al. [2003], Hofland et al. [1999]; cited from earlier work
[1] = system: AR42J cells (SSTR2 high expression); assay: Receptor binding and competitive receptor blocking assay, AR42J cells; format: cell-based
Experimental: (§2) Cells were seeded in Fisherbrand™ 12-well surface-treated culture plates with 1 million cells per well for each cell line and were allowed to adhere overnight under normal cell culture conditions. Samples were not purified to remove excess DFO-TOC. For receptor binding and blocking experiments, each well was incubated with [^89Zr]Zr-DFO-TOC (0.025 nmol DFO-TOC per well, 1 µCi (0.037 MBq) of [^89Zr]) in 1mL of cell media. For receptor blocking experiments,
(§3) 2.5 nmol unlabeled DFO-TOC was added to each well, in addition to [^89Zr]Zr-DFO-TOC. Culture plates were incubated with the tracer for 1 h, 3 h, 1 day, 3 days, 5 days, and 6 days. At each timepoint, the media was removed and the cells were washed with PBS twice. Cells were detached using 1 mL of 1 M NaOH and collected in a microcentrifuge tube for analysis using a Revvity (Waltham, MA) Wizard2 Gamma Counter. BCA assays were used to estimate protein concentrations per the manufacturer’s instructions.
(§4) All data was analyzed using GraphPad Prism (San Diego, CA) and is presented as a mean ± standard deviation. Statistical analysis was completed using a paired nonparametric t-test (α = 0.05) to compare cell total binding and cell blocking groups.

[2] = 100 µL of tracer sample (200 µCi, 7.4 MBq) in 400 µL prefiltered mouse serum, 37 °C, 800 rpm, mean ± standard deviation
Experimental: To neutralize [^89Zr]Zr-oxalate, an equal volume of [^89Zr]Zr-oxalate and 0.5 M Thermo Scientific HEPES (concentration 99%) buffer were mixed. The pH of the sample was then adjusted using 5.0 M NaOH. For all radiolabeling experiments, 100 µCi (3.7 MBq) of ^89Zr (pH ~ 7.4) was incubated with varying molar quantities of DFO-TOC and 1.0 M HEPES buffer in a final incubation volume of 200 µL. The reaction was incubated on a thermomixer at 37 °C and 800 rpm for 30 min. The molar activity was determined by radiolabeling 1 nmol of DFO-TOC with varying activities of ^89Zr up to 1500 µCi (55.5 MBq) and 1.0 M HEPES buffer in a final incubation volume of 200 µL. […] Samples were analyzed using an Agilent (Santa Clara, CA) 1260 Infinity II high-performance liquid chromatography (HPLC) instrument with a LabLogic (Chantilly, VA) Flow-RAM radio-HPLC detector. Radiochemical yields were determined via radio-HPLC using a reversed-phase C18 selectivity column (5 μm particle size, 150 mm length, and 4.6 mm diameter).
The samples were assessed for benchtop stability and stability in mouse serum only if a radiochemical yield of 95% or greater was achieved. Benchtop stability was assessed at time points of 30 min, 1 h, 1 day, 2 days, 3 days, 6 days, and 9 days using an Eckert & Ziegler (Valencia, CA) AR-2000 instant Thin Layer Chromatography (iTLC) and radio-HPLC. […]

PANC-1 cells = assay: Internalization assay, PANC-1 cells; format: cell-based; details: 0.025 nmol DFO-TOC, 1 µCi per well; time points 30 min, 1 h, 3 h; trypsin and sodium citrate pH 2 strip
Experimental: (§5) Cells were seeded in Fisherbrand™ 12-well surface-treated culture plates with 1 million cells per well for each cell line and were allowed to grow overnight under cell culture conditions. For internalization experiments, each well received 0.025 nmol DFO-TOC radiolabeled with 1 µCi (0.037 MBq) of [^89Zr]Zr-DFO-TOC in 1 mL of cell media. Plates were incubated with [^89Zr]Zr-DFO-TOC for 30 min, 1 h, and 3 h. Cells were detached from the wells using 800 µL of 0.05% Gibco trypsin incubated for 5 min. Cells were sedimented using a benchtop centrifuge at 7000 g for 5 min. The supernatant was removed, and the cells were resuspended in 200 µL of 0.1 M Supelco sodium citrate (pH 2) for 5 min. The cells were sedimented using a benchtop microcentrifuge and the supernatant was added to the trypsin. The supernatant and cell pellet activities were determined using the Wizard2 Gamma Counter.

[3] = system: PC-3 cells (SSTR2 moderate expression); assay: Receptor binding and competitive receptor blocking assay, PC-3 cells; format: cell-based; details: 2.5 nmol unlabeled DFO-TOC (100x excess) as blocking agent; at 120 h; p = 0.0001; paired nonparametric t-test
Experimental: as §2, §3, §4

[4] = Benchtop stability of the radiotracer (radio-HPLC and iTLC); format: physicochemical; details: mean ± standard deviation
Experimental: To neutralize [^89Zr]Zr-oxalate, an equal volume of [^89Zr]Zr-oxalate and 0.5 M Thermo Scientific HEPES (concentration 99%) buffer were mixed. The pH of the sample was then adjusted using 5.0 M NaOH. For all radiolabeling experiments, 100 µCi (3.7 MBq) of ^89Zr (pH ~ 7.4) was incubated with varying molar quantities of DFO-TOC and 1.0 M HEPES buffer in a final incubation volume of 200 µL. The reaction was incubated on a thermomixer at 37 °C and 800 rpm for 30 min. The molar activity was determined by radiolabeling 1 nmol of DFO-TOC with varying activities of ^89Zr up to 1500 µCi (55.5 MBq) and 1.0 M HEPES buffer in a final incubation volume of 200 µL. Samples were incubated using the same conditions as the radiochemical yield assays. Samples were analyzed using an Agilent (Santa Clara, CA) 1260 Infinity II high-performance liquid chromatography (HPLC) instrument with a LabLogic (Chantilly, VA) Flow-RAM radio-HPLC detector. Radiochemical yields were determined via radio-HPLC using a reversed-phase C18 selectivity column (5 μm particle size, 150 mm length, and 4.6 mm diameter).
The samples were assessed for benchtop stability and stability in mouse serum only if a radiochemical yield of 95% or greater was achieved. Benchtop stability was assessed at time points of 30 min, 1 h, 1 day, 2 days, 3 days, 6 days, and 9 days using an Eckert & Ziegler (Valencia, CA) AR-2000 instant Thin Layer Chromatography (iTLC) and radio-HPLC. Diethylenetriamine pentaacetic acid was used as the mobile phase for iTLC, while radio-HPLC used the gradient described previously. Stability in mouse serum was assessed by adding 100 µL of a 200 [drawing 3] […] No further sample purification was conducted before injection on the radio-HPLC. All samples remained on a thermomixer at 37 °C and 800 rpm, and aliquots were removed for analysis by using iTLC and radio-HPLC, after 1 h, 1 day, 2 days, 3 days, 5 days, 6 days, and 9 days.

PC-3 cells = assay: Internalization assay, PC-3 cells; format: cell-based
Experimental: as §5

[5] = system: PANC-1 cells (SSTR2 minimal expression); assay: Receptor binding and competitive receptor blocking assay, PANC-1 cells; format: cell-based
Experimental: as §2, §3, §4

AR42J cells = assay: Internalization assay, AR42J cells; format: cell-based; details: 0.025 nmol DFO-TOC, 1 µCi per well; time points 30 min, 1 h, 3 h; trypsin and sodium citrate pH 2 strip
Experimental: as §5

[6] = ref Brereton et al. [2015]; Lamberts et al. [1996]; cited from earlier work
Text: as §1, with “[2020]).” for “[2020]). Prior research has ...”

octreotide
receptor affinity for SSTR2 (SSTR2): high receptor affinity

[Tyr3, Thr8]-octreotide
earliest time at which SSTR2 internalization was observed (SSTR2, AR42J): 2.5 min

CC(=O)N(O)CCCCCNC(=O)CCC(=O)N(O)CCCCCNC(=O)CCC(=O)N(O)CCCCCNC(=S)Nc1ccc(NC(=S)NCCCCCC(=O)N[C@H](Cc2ccccc2)C(=O)N[C@H]2CSSC[C@@H](C(=O)N[C@H](CO)[C@@H](C)O)NC(=O)[C@H]([C@@H](C)O)NC(=O)[C@H](CCCCN)NC(=O)[C@@H](Cc3c[nH]c4ccccc34)NC(=O)[C@H](Cc3ccc(O)cc3)NC2=O)cc1 [[^89Zr]Zr-DFO-TOC, metal not drawn]
tracer uptake (total binding) in AR42J cells compared with the other cell lines ([1]; 0.025 nmol DFO-TOC, 1 µCi per well, 1 million cells per well, 1 h to 6 days, gamma counter, P < 0.0001 vs PC-3 and p = 0.0001 vs PANC-1 after 1 h): highest uptake; also recorded: higher uptake than PC-3 and PANC-1 cell lines at all time points | time at which AR42J cell binding reached saturation ([1]; 0.025 nmol DFO-TOC, 1 µCi per well, time points 1 h to 6 days): 5 days | blocking versus total binding groups, AR42J ([1]; 2.5 nmol unlabeled DFO-TOC (100x excess) as blocking agent, after 1 h, p < 0.0001, paired nonparametric t-test): statistically significant difference | radiochemical yield in mouse serum after 9 days, radio-HPLC [2]: 89 ± 2% | time of maximum cell internalization, PANC-1 (PANC-1 cells): 3 h | blocking versus total binding groups, PC-3 [3]: statistically significant difference | radiochemical yield on the benchtop after 9 days, iTLC ([4]; iTLC, diethylenetriamine pentaacetic acid mobile phase): 97 ± 4% | radiochemical yield on the benchtop after 9 days, radio-HPLC ([4]; radio-HPLC, C18, 0.1% TFA water/acetonitrile gradient): 89.6% and 90 ± 4% | time of maximum cell internalization, PC-3 (PC-3 cells; 0.025 nmol DFO-TOC, 1 µCi per well, time points 30 min, 1 h, 3 h, trypsin and sodium citrate pH 2 strip): 3 h | percentage of tracer internalized in PC-3 compared with AR42J and PANC-1 (PC-3 cells; time points up to 3 h): higher percentage of the tracer was internalized | tracer uptake in PANC-1 cells ([5]; 0.025 nmol DFO-TOC, 1 µCi per well, attributed to low SSTR2 expression): Low | blocking versus total binding groups, PANC-1 ([5]; 2.5 nmol unlabeled DFO-TOC (100x excess) as blocking agent, all time points, paired nonparametric t-test): No statistically significant difference | time of maximum cell internalization, AR42J (AR42J cells): 3 h

somatostatin [SST]
bioactive half-life [6]: < 1 min
